Measurements from ChEMBL document CHEMBL1155845, “Novel terphenyls and 3,5-diaryl isoxazole derivatives endowed with growth supporting and antiapoptotic properties” (J Med Chem, 2008).
Activity calls are given as the source filed them. The calls are words filed in the database; no cut-off is given here.

Legend:
HL-60 [1] = assay: Antiapoptotic activity in human HL60 cells after 72 hrs in serum free medium relative to control; type: functional
HL-60 [2] = assay: Growth inhibition of human HL60 cells at greater than 10 uM after 48 hrs by trypan blue assay; type: functional, cell-based
HL-60 [3] = assay: Growth inhibition of human HL60 cells at 2.5 uM after 72 hrs in serum free medium; type: functional, cell-based
HL-60 [4] = assay: Growth inhibition of human HL60 cells at 5 after 72 hrs in serum free medium; type: functional, cell-based
HL-60 [5] = assay: Antiproliferative activity against human HL60 cells after 72 hrs in serum free medium; type: functional
HL-60 [6] = assay: Enhancement of human HL60 cells growth at less than 10 uM after 48 hrs by trypan blue assay; type: functional, cell-based
HL-60 [7] = assay: Enhancement of human HL60 cells growth at 2.5 uM after 72 hrs in serum free medium; type: functional, cell-based
HL-60 [8] = assay: Enhancement of human HL60 cells growth at 1 uM after 72 hrs in serum free medium; type: functional, cell-based
HL-60 [9] = assay: Growth inhibition of human HL60 cells after 48 hrs by trypan blue assay; type: functional, cell-based; settings: HL-60, 48 h
HL-60 [10] = assay: Enhancement of human HL60 cells growth assessed as promotion of G1 to S transition at 2.5 uM after 24 hrs by flow cytometry; type: functional, cell-based
HL-60 [11] = assay: Antiapoptotic activity in human HL60 cells at 2.5 to 5 uM after 72 hrs in serum free medium relative to control; type: functional
HL-60 [12] = assay: Enhancement of human HL60 cells growth at 5 uM after 72 hrs in serum free medium; type: functional, cell-based
HL-60 [13] = assay: Inhibition of daunorubicin-induced apoptosis in human HL60 cells at 2.5 uM after 48 hrs; type: functional, cell-based

Question: Which Activity (HL-60 [1]) does the source give for `COc1cc(-c2cccc(-c3ccc(C(=O)O)cc3)c2)cc(OC)c1OC` here?
Answer: 17%

Question: How did the Activity (HL-60 [2]) turn out when `O=C(O)c1ccc(-c2ccc(-c3ccc(O)c(C45CC6CC(CC(C6)C4)C5)c3)cc2)cc1` was run?
Answer: Active

Question: How did the Activity (HL-60 [2]) turn out when `O=C(O)c1ccc(C2=NOC(c3ccc(O)c(C45CC6CC(CC(C6)C4)C5)c3)C2)cc1` (stereo not drawn) was run?
Answer: Active

Question: And the Activity (HL-60 [3])?
Answer: Active

Question: What about the Activity (HL-60 [4]) of the same compound?
Answer: Active

Question: And the “growth inhibition (GI)” value (HL-60 [5])?
Answer: 70%

Question: And the Activity (HL-60 [6])?
Answer: Active

Question: Which Activity (HL-60 [7]) does the source give for `O=[N+]([O-])c1ccc(-c2cc(-c3ccc(O)c(C45CC6CC(CC(C6)C4)C5)c3)on2)cc1` here?
Answer: Active

Question: What about the Activity (HL-60 [2]) of the same compound?
Answer: Active

Question: What about the Activity (HL-60 [8]) of the same compound?
Answer: Active

Question: And the “growth inhibition (GI)” value (HL-60 [5])?
Answer: 70%

Question: What about the Activity (HL-60 [6]) of the same compound?
Answer: Active

Question: How did the Activity (HL-60 [1]) turn out when `COc1cc(-c2ccc(-c3ccc(C(=O)O)cc3)cc2)cc(OC)c1OC` was run?
Answer: 18%

Question: For `O=C(O)c1ccc(-c2cccc(-c3ccc(O)c(C45CC6CC(CC(C6)C4)C5)c3)c2)cc1`, which Activity (HL-60 [2]) is on record?
Answer: Active

Question: Which IC50 (HL-60 [9]) does the source give for `O=C(O)c1ccc(-c2cc(-c3ccc(O)c(C45CC6CC(CC(C6)C4)C5)c3)on2)cc1` here?
Answer: 3 µM

Question: Which results are given for `O=[N+]([O-])c1ccc(-c2cc(-c3ccc(O)c(C45CC6CC(CC(C6)C4)C5)c3)no2)cc1`?
Answer: Activity (HL-60 [10]): Active; Activity (HL-60 [2]): Active; Activity (HL-60 [11]): 10%; growth inhibition (GI) (HL-60 [5]): 70%; Activity (HL-60 [6]): Active; Activity (HL-60 [12]): Active; Activity (HL-60 [13]): Active

Question: Which IC50 (HL-60 [9]) does the source give for `O=C(O)c1ccc(-c2ccccc2-c2ccc(O)c(C34CC5CC(CC(C5)C3)C4)c2)cc1` here?
Answer: 8 µM
